Reference: PMC6631349 (Xenobiotica; the fate of foreign compounds in biological …, 2014)

What was measured:
UGT1A7 = molecular target: T1, UGT1A7 (Homo sapiens, UniProt Q9HAW7); assay: UGT1A7 supersomes-catalyzed 4-MU glucuronidation inhibition; conditions: recombinant human UGT, mean of triplicate
T1 sequence (Q9HAW7 26-530): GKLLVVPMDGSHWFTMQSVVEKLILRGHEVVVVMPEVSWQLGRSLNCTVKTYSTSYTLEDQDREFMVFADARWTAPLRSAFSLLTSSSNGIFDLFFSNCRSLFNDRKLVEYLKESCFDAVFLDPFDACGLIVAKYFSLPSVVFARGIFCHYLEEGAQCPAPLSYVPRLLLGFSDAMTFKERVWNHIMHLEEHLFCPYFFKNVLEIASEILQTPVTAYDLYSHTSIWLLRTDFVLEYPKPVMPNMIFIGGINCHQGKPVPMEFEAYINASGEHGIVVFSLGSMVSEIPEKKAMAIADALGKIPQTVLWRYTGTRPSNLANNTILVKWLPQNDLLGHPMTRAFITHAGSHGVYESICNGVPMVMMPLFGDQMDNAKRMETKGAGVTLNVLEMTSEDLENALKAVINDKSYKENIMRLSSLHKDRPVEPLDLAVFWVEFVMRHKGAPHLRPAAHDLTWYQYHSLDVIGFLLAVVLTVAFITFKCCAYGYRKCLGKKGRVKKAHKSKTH

UGT1A3 = molecular target: T2, UGT1A3 (Homo sapiens, UniProt P35503); assay: UGT1A3 supersomes-catalyzed 4-MU glucuronidation inhibition; conditions: recombinant human UGT, mean of triplicate
T2 sequence (P35503 29-534): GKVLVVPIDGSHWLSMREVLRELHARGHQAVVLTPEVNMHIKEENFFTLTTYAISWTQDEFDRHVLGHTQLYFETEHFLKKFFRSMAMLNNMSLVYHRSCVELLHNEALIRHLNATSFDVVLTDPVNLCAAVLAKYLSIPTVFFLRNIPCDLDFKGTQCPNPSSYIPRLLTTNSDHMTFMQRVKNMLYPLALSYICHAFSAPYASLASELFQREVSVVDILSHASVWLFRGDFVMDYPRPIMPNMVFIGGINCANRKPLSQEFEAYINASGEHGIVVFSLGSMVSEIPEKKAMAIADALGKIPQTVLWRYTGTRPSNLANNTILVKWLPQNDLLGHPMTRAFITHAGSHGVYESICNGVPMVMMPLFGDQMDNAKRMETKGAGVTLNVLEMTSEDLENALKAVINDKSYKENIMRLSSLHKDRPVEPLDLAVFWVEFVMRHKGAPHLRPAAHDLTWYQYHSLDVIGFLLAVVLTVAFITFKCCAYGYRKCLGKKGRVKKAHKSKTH

UGT1A9 = molecular target: T3, UGT1A9 (Homo sapiens, UniProt O60656); assay: UGT1A9 supersomes-catalyzed 4-MU glucuronidation inhibition; conditions: for residual activity 1A9: recombinant human UGT, mean of triplicate
T3 sequence (O60656 26-530): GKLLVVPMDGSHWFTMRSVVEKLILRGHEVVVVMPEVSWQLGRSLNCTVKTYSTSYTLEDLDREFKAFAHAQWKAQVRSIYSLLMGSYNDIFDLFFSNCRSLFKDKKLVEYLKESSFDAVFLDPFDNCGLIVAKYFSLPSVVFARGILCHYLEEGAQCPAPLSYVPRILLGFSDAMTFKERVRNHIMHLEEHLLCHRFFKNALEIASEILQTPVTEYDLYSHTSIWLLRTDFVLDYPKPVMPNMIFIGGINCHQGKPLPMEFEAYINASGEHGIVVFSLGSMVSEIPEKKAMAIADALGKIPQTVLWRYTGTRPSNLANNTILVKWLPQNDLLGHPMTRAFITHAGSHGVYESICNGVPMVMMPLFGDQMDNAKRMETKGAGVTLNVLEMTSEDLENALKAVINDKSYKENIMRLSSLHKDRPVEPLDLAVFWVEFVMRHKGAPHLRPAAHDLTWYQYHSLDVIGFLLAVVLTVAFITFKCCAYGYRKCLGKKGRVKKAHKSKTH

Row | SMILES | residual activity 1A7 (UGT1A7; 50 μM LPC components) | residual activity 1A3 (UGT1A3; 50 μM LPC components) | residual activity 1A9 (UGT1A9; 50 μM LPC components) | residual activity 1A7 (UGT1A7; 50 μM PC components) | residual activity 1A3 (UGT1A3; 50 μM PC components) | residual activity 1A9 (UGT1A9; 50 μM PC components) | inhibition percentage of UGT1A9 activity (UGT1A9; 50 μM)
1 | CCCCCC(=O)OC[C@@H](O)COP(=O)([O-])OCC[N+](C)(C)C [LPC 6:0] | 130.6% | 84.4% | 95.9% | – | – | – | –
2 | CCCCCCC(=O)OCC(O)COP(=O)([O-])OCC[N+](C)(C)C (stereo not shown) [LPC 7:0] | 138.3% | 80.4% | 92.9% | – | – | – | –
3 | CCCCCCCC(=O)OCC(O)COP(=O)([O-])OCC[N+](C)(C)C (stereo not shown) [LPC 8:0] | 133.3% | 80.3% | 99.6% | – | – | – | –
4 | CCCCCCCCC(=O)OC[C@@H](O)COP(=O)([O-])OCC[N+](C)(C)C [LPC 9:0] | 134.9% | 79.6% | 94.5% | – | – | – | –
5 | CCCCCCCCCC(=O)OC[C@@H](O)COP(=O)([O-])OCC[N+](C)(C)C [LPC 10:0] | 139.8% | 75.9% | 99.2% | – | – | – | –
6 | CCCCCCCCCCC(=O)OC[C@@H](O)COP(=O)([O-])OCC[N+](C)(C)C [LPC 11:0] | 149.9% | 75.9% | 104.6% | – | – | – | –
7 | CCCCCCCCCCCC(=O)OC[C@@H](O)COP(=O)([O-])OCC[N+](C)(C)C [LPC 12:0] | 138.6% | 74.8% | 89.2% | – | – | – | –
8 | CCCCCCCCCCCCC(=O)OC[C@@H](O)COP(=O)([O-])OCC[N+](C)(C)C [LPC 13:0] | 120.1% | 88.1% | 99.4% | – | – | – | –
9 | CCCCCCCCCCCCCC(=O)OC[C@@H](O)COP(=O)([O-])OCC[N+](C)(C)C [LPC 14:0] | 153.6% | 74.2% | 97.5% | – | – | – | –
10 | CCCCCC(=O)OC[C@H](COP(=O)([O-])OCC[N+](C)(C)C)OC(=O)CCCCC [PC 6:0, 6:0] | – | – | – | 166.0% | 105.1% | 96.1% | –
11 | CCCCCCC(=O)OC[C@H](COP(=O)([O-])OCC[N+](C)(C)C)OC(=O)CCCCCC [PC 7:0, 7:0] | – | – | – | 150.2% | 109.9% | 137.7% | –
12 | CCCCCCCC(=O)OC[C@H](COP(=O)([O-])OCC[N+](C)(C)C)OC(=O)CCCCCCC [PC 8:0, 8:0] | – | – | – | 114.8% | 119.1% | 180.5% | –
13 | CCCCCCCCC(=O)OC[C@H](COP(=O)([O-])OCC[N+](C)(C)C)OC(=O)CCCCCCCC [PC 9:0, 9:0] | – | – | – | 137% | 117.7% | 10.7% | 89.3%
14 | CCCCCCCCCC(=O)OC[C@H](COP(=O)([O-])OCC[N+](C)(C)C)OC(=O)CCCCCCCCC [PC 10:0, 10:0] | – | – | – | 163.2% | 107.4% | 158% | –
15 | CCCCCCCCCCC(=O)OC[C@H](COP(=O)([O-])OCC[N+](C)(C)C)OC(=O)CCCCCCCCCC [PC 11:0, 11:0] | – | – | – | 175.5% | 110.7% | 97.8% | –
16 | CCCCCCCCCCCC(=O)OC[C@H](COP(=O)([O-])OCC[N+](C)(C)C)OC(=O)CCCCCCCCCCC [PC 12:0, 12:0] | – | – | – | 171.4% | 93.0% | 84.1% | –
